Results: patent US20100016731A1, “Hemodynamic Detection of Circulatory Anomalies” (Cardiox Corporation, priority 2008, published 2010)
Where a name gives a salt, the structure may show the parent alone.

Key:
[1] = 1 day
Text: However, due to the ratiometric form of Eq. 7 in the present invention, the terms D and CCF cancel out. Also, the units of measure for the fluorescence signal level (e.g., millivolts-seconds) cancel out. […] However, the amount of the indicator injected needs to be sufficiently large so that the much smaller indicator/dilution curves associated with one or two right-to-left shunts can be adequately resolved and their corresponding areas can be accurately calculated. In a preferred embodiment of the present invention involving the use of Indocyanine Green (ICG) dye (supplied, for example, by Akorn, Inc., 2500 Millbrook Drive, Buffalo Grove, Ill. 60089) as the indicator, the preferred amount of ICG dye injected is 2.0 ml at an ICG dye concentration of 2.5 milligram/ml which is equivalent to an injected ICG dose of 5.0 milligrams. The chemical name for Indocyanine Green is 1H-benz(e)indolium, 2-[7-[1,3-dihydro-1,1-dimethyl-3-(4-sulfobutyl)-2H-benz[e]indo-2-ylidene]-1,3,5-heptatrienyl]-1,1-dimethyl-3-(4-sulfobutyl)-hydroxide, inner salt, sodium, or 2-[7-[1,1-dimethyl-3-(4-sulfobutyl)benz[e]indolin-2-ylidene]-1,3,5-heptatrienyl]-1,1-dimethyl-3-(4-sulfobutyl)-1H-benz[e]indolium hydroxide, inner salt, sodium salt. A typical right-to-left shunt test procedure might involve a total of 3 to 5 tests which represents a total injected dose of 15 to 25 milligrams. […]

[2] = manufacturers specified guideline; cited from earlier work
[3] = Excitation and fluorescence wavelengths and signal attenuation versus tissue depth of fluorescing dyes (FIG. 2); format: physicochemical
Text: These fluorescing dyes are excited by one wavelength of electromagnetic radiation, and emit a detectable signal at a second wavelength. Looking to FIG. 2, the excitation signal for fluorescein dye is represented at curve 30 which is an excitation signal at less than about 500 nanometers (nm). A resultant fluorescence emission from the excitation at 30 is shown at curve 32, at a wavelength of about 525 nm.
Looking to the indocyanine green dye spectrum, an excitation curve is shown at 34, having a peak excitation wavelength at about 785 nanometers. Correspondingly, the fluorescence emission from excitation at curve 34 is represented at curve 36 with a peak emission wavelength of about 830 nanometers. Directed across FIG. 2 is a curve representing the level of constant signal attenuation or absorption of about 37% resulting from passage of signal through tissue. That curve is represented at 38. Note that if a blood vessel is about one millimeter beneath the surface of skin the system would perform at about 37% of the original intensity of the excitation signal and fluorescence signal for the case of indocyanine green dye indicator. In contrast, a 37% decrease in excitation and emission signal level would result for the fluorescein dye indicator at a tissue thickness of only 0.25 mm. Since blood vessel being targeted is at least 1 mm below skin surface, the attenuation and associated signal loss would be much larger. Therefore, indocyanine green dye is preferred.
Turning again to the indocyanine green dye spectrum, note that the excitation signal 34 for ICG intersects curve 38 at a depth allowing for readily reaching blood vessels, for example within the pinna of the ear. Accordingly, indocyanine green is compatible with use as a circulatory tracking agent when detecting through skin, and indocyanine green was the indicator elected for subsequent study.

recommended ICG dose for a human subject [1] | excitation wavelength ([3]; FIG. 2) | fluorescence emission wavelength ([3]; FIG. 2) | tissue thickness (depth of blood vessel beneath skin) at constant signal attenuation of about 37% ([3]; excitation and fluorescence signal, FIG. 2 curve 38) [mm] | Structure (SMILES) | recommended maximum ICG dose per day [2]
about 127 milligrams | about 785 nanometers | – | – | CC1(C)C(/C=C/C=C/C=C/C=C2\N(CCCCS(=O)(=O)O)c3ccc4ccccc4c3C2(C)C)=[N+](CCCCS(=O)(=O)[O-])c2ccc3ccccc3c21 [ICG, 1H-benz(e)indolium, 2-[7-[1,3-dihydro-1,1-dimethyl-3-(4-sulfobutyl)-2H-benz[e]indo-2-ylidene]-1,3,5-heptatrienyl]-1,1-dimethyl-3-(4-sulfobutyl)-hydroxide, inner salt, sodium] | ≤ 2 milligrams per kilogram of body weight
– | less than 500 nanometers | about 525 nm | 0.25 | O=C1OC2(c3ccc(O)cc3Oc3cc(O)ccc32)c2ccccc21 [fluorescein] | –
